Target: COX-1 (Homo sapiens, UniProt P23219)
Test: COX-1 inhibition, resveratrol versus Japanese knotweed
Assay type: biochemical
Conditions: pure resveratrol (99%) compared with Japanese knotweed

COX-1, sequence (P23219 24-599): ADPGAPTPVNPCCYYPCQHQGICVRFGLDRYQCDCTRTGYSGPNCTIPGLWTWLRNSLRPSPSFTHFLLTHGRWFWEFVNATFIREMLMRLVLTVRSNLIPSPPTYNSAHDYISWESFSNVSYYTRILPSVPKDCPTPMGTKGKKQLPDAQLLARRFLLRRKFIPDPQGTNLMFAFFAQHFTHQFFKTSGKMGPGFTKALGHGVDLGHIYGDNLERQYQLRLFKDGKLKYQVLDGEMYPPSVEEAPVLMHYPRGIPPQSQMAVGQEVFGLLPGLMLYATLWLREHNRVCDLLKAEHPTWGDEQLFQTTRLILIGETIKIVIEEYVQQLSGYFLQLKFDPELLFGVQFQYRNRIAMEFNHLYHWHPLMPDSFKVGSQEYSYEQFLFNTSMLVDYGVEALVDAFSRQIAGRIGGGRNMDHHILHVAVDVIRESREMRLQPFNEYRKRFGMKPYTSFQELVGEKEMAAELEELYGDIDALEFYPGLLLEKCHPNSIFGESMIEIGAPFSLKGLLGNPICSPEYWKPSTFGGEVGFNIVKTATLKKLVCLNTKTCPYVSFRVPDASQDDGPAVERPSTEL

Structure (SMILES): Oc1ccc(C=Cc2cc(O)cc(O)c2)cc1 [resveratrol]
- effectiveness for COX-1: just as effective
